The results in this text go back to ChEMBL document CHEMBL4402589, “Discovery of a Potent and Selective NF-κB-Inducing Kinase (NIK) Inhibitor That Has Anti-inflammatory Effects in Vitro and in Vivo” (J Med Chem, 2020).

Molecules are shown by their SMILES. Active and inactive are the calls of the source. The calls are words filed in the database; no cut-off is given here.

The target in the first data set is T1, Mitogen-activated protein kinase kinase kinase 14 (Homo sapiens, UniProt Q99558). Description: Inhibition of human NIK using ATP as substrate by kinase-glo assay.
T1 sequence (Q99558 whole entry): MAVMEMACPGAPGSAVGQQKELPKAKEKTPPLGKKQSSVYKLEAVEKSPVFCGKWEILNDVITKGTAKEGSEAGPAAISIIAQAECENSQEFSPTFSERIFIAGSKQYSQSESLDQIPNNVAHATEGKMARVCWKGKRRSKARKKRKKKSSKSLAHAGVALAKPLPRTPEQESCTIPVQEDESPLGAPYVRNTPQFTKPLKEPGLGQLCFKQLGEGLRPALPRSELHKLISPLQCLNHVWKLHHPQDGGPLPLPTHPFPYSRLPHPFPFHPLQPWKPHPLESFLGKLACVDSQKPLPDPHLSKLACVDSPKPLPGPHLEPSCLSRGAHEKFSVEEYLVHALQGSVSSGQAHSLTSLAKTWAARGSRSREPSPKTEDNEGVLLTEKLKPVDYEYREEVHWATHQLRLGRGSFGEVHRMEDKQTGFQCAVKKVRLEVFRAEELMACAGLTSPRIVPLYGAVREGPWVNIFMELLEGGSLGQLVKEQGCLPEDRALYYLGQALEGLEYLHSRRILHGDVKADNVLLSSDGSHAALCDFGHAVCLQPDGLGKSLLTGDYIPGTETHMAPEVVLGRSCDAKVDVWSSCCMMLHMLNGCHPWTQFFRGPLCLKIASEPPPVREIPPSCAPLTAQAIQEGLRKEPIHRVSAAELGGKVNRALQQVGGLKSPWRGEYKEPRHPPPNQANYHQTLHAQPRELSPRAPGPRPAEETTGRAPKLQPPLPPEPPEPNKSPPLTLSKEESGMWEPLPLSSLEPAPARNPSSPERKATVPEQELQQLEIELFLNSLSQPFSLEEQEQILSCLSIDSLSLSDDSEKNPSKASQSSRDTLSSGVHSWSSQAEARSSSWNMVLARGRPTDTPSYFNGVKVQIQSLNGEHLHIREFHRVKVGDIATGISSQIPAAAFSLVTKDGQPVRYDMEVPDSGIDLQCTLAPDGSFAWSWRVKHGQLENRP
Settings: not given
Regarding `C[C@@](O)(C#Cc1ccc2c(c1)N(c1nc(N)ncc1Cl)CC2)c1nccs1`, the IC50 turned out to be 4.2 nM.

The next data set addresses T1, Mitogen-activated protein kinase kinase kinase 14. Kind of data set: Inhibition of recombinant human N-terminal GST-tagged NIK (318 to 947 residues) expressed in baculovirus infected Sf9 cells using ultrapure ATP as substrate measured after 1 hr by ADP-glo assay.
Settings: not given
As to `CCc1nc(N)nc2c1ccn2-c1ccnc(C#CC2(O)CCN(C)C2=O)c1` (centres undefined), the IC50 stood at 190 nM.
In the case of `Nc1ncc2ccn(-c3ccnc(C#CC4(O)CCCC4)c3)c2n1`, the IC50 was 234 nM.
As for `CC(O)(C#Cc1cc(-n2ccc3cnc(N)nc32)ccn1)c1nccs1` (centres undefined), the half-inhibitory concentration (IC50) came out at 22.4 nM.
Same read-out and setting: for `CC(O)(C#Cc1cncc(-n2ccc3cnc(N)nc32)c1)c1nccs1` (centres undefined) the value was 1860 nM; for `CC(O)(C#Cc1cc(-n2ccc3cnc(N)nc32)c(F)cc1F)c1nccs1` (centres undefined), 641 nM; for `COc1ccc(-n2ccc3cnc(N)nc32)cc1C#CC(C)(O)c1nccs1` (centres undefined), 1750 nM.
On the same count and under the same terms, for `CN(C)C(=O)c1ccc(-n2ccc3cnc(N)nc32)cc1C#CC(C)(O)c1nccs1` (centres undefined) the value was over 10000 nM.
Take `Cc1[nH]c2cnc(N)nc2c1-c1cccc(C#CC(C)(O)c2nccs2)c1` (centres undefined): the concentration for half-maximal inhibition (IC50) amounted to 2200 nM.
With `CC(O)(C#Cc1ccc(F)c(-n2ccc3cnc(N)nc32)c1)c1nccs1` (centres undefined), the concentration for half-maximal inhibition (IC50) turned out to be 215 nM.
Consider `CN1CCC(O)(C#Cc2cccc(-c3c[nH]c4cnc(N)nc34)c2)C1=O` (centres undefined), for which the IC50 is 410 nM.
For `Nc1ncc2[nH]cc(-c3cccc(C#CC4(O)CCCC4)c3)c2n1`, the 50% inhibitory concentration (IC50) came out at 475 nM.
Regarding `CC(O)(C#Cc1cc(-n2ccc3cnc(N)nc32)ccc1C#N)c1nccs1` (centres undefined), the 50% inhibitory concentration (IC50) worked out at 219 nM.
In the case of `COc1cc(C#CC(C)(O)c2nccs2)cc(-c2c[nH]c3cnc(N)nc23)c1` (centres undefined), the IC50 came out at 290 nM.
On the same count and under the same terms, for `CC(O)(C#Cc1cc(-n2ccc3cnc(N)nc32)ccn1)C(=O)N1CCCC1` (centres undefined) the value was 6160 nM; for `CC(O)(C#Cc1cccc(-c2c[nH]c3cnc(N)nc23)c1)c1cnccn1` (centres undefined), 468 nM.
On the same count and under the same terms, the result for `CC(C)(O)C#Cc1cccc(-c2c[nH]c3cnc(N)nc23)c1` reads 720 nM; that for `CC(O)(C#Cc1cccc(-c2c[nH]c3cnc(N)nc23)c1)c1nccs1` (centres undefined), 218 nM.
On the same count and under the same terms, for `CN1CCC(O)(C#Cc2cc(-n3ccc4cnc(N)nc43)ccn2)C1=O` (centres undefined) the value was 26.1 nM; for `CC(O)(C#Cc1cccc(-c2c[nH]c3cnc(N)nc23)c1)C(=O)N1CCCC1` (centres undefined), over 10000 nM; for `C[C@@](O)(C#Cc1ccc2c(c1)N(c1nc(N)ncc1Cl)CC2)c1nccs1`, 15.1 nM.
Take `Nc1ncc2ccn(-c3ccnc(C#CC4(O)CCCCC4)c3)c2n1`: the IC50 turned out to be 1570 nM.
Consider `CC(O)(C#Cc1cc(-n2ccc3cnc(N)nc32)c(F)cn1)c1nccs1` (centres undefined), for which the concentration for half-maximal inhibition (IC50) came to 87.3 nM.
Still for that read-out and setting: for `CN1CCCC(O)(C#Cc2cc(-n3ccc4cnc(N)nc43)ccn2)C1=O` (centres undefined) the value was 25.7 nM.
Turning to `COc1ccc(C#CC(C)(O)c2nccs2)cc1-n1ccc2cnc(N)nc21` (centres undefined), the IC50 stood at 216 nM.
With `CC(O)(C#Cc1cccc(-n2ccc3cnc(N)nc32)c1)c1nccs1` (centres undefined), the half-maximal inhibitory concentration (IC50) was 303 nM.
Same read-out and setting: the result for `Nc1ncc2ccn(-c3ccnc(C#CC4(O)CCNCC4)c3)c2n1` reads over 10000 nM; that for `Cc1ccc(C#CC(C)(O)c2nccs2)cc1-n1ccc2cnc(N)nc21` (centres undefined), 335 nM; that for `CC(O)(C#Cc1cc(-n2ccc3cnc(N)nc32)ccc1F)c1nccs1` (centres undefined), 204 nM.
With `Nc1ncc2ccn(-c3ccnc(C#CC4(O)CCCCCC4)c3)c2n1`, the IC50 was 748 nM.
Regarding `CC(O)(C#Cc1cc(C#N)cc(-n2ccc3cnc(N)nc32)c1)c1nccs1` (centres undefined), the IC50 was found to be 2060 nM.
As for `COc1nc(N)nc2c1ccn2-c1cccc(C#CC(C)(O)c2nccs2)c1` (centres undefined), the 50% inhibitory concentration (IC50) was 2480 nM.
Take `CN(C)C(=O)C(C)(O)C#Cc1cccc(-c2c[nH]c3cnc(N)nc23)c1` (centres undefined): the concentration for half-maximal inhibition (IC50) is over 10000 nM.
As for `Nc1ncc2[nH]cc(-c3cccc(C#CC(O)c4nccs4)c3)c2n1` (centres undefined), the IC50 came out at 6380 nM.
With `CC(O)(C#Cc1cccc(-c2c[nH]c3cnc(N)nc23)c1F)c1nccs1` (centres undefined), the half-maximal inhibitory concentration (IC50) was 10900 nM.
Take `CC(O)(C#Cc1ccc(-n2ccc3cnc(N)nc32)cc1)c1nccs1` (centres undefined): the IC50 is 3840 nM.
Consider `CNc1ccc(-n2ccc3cnc(N)nc32)cc1C#CC(C)(O)c1nccs1` (centres undefined), for which the concentration for half-maximal inhibition (IC50) is over 10000 nM.
Same read-out and setting: for `Cc1nc(N)nc2c1ccn2-c1ccnc(C#CC2(O)CCN(C)C2=O)c1` (centres undefined) the value was 85.2 nM; for `Nc1ncc2ccn(-c3ccnc(C#CC4(O)CCC4)c3)c2n1`, 388 nM; for `CC(O)(C#Cc1ccc(F)c(-c2c[nH]c3cnc(N)nc23)c1)c1nccs1` (centres undefined), 85.5 nM.
As to `Cc1cc(C(C)(O)C#Cc2cccc(-c3c[nH]c4cnc(N)nc34)c2)no1` (centres undefined), the concentration for half-maximal inhibition (IC50) stood at 290 nM.
In the case of `CN(C)CCOc1ccc(-n2ccc3cnc(N)nc32)cc1C#CC(C)(O)c1nccs1` (centres undefined), the IC50 is over 10000 nM.
Still for that read-out and setting: for `CC(O)(C#Cc1cccc(-n2cc(Cl)c3cnc(N)nc32)c1)c1nccs1` (centres undefined) the value was 2060 nM; for `CN1CCC(O)(C#Cc2cc(-n3ccc4ccc(N)nc43)ccn2)C1=O` (centres undefined), 2480 nM; for `CCC(O)(C#Cc1cc(-n2ccc3cnc(N)nc32)ccn1)c1nccs1` (centres undefined), 2290 nM.
Still for that read-out and setting: the result for `CN1CCC(O)(C#Cc2ccc(F)c(-c3c[nH]c4cnc(N)nc34)c2)C1=O` (centres undefined) reads 5.9 nM; that for `CC(O)(C#Cc1cc(F)cc(-c2c[nH]c3cnc(N)nc23)c1)c1nccs1` (centres undefined), 319 nM.
With `CC(O)(C#Cc1cccc(-c2c[nH]c3cnc(N)nc23)c1)C1CCCCC1` (centres undefined), the concentration for half-maximal inhibition (IC50) was 2030 nM.
As to `CC(O)(C#Cc1cc(Cl)cc(-c2c[nH]c3cnc(N)nc23)c1)c1nccs1` (centres undefined), the 50% inhibitory concentration (IC50) is over 10000 nM.
For `Cc1cc(C(C)(O)C#Cc2cc(-n3ccc4cnc(N)nc43)ccn2)no1` (centres undefined), the IC50 was found to be 120 nM.
The same measure, in the same setting: the result for `CC(O)(C#Cc1cc(-n2ccc3cnc(N)nc32)ccn1)c1cnccn1` (centres undefined) reads 1640 nM; that for `COCCOc1ccc(-n2ccc3cnc(N)nc32)cc1C#CC(C)(O)c1nccs1` (centres undefined), 25800 nM; that for `C[C@](O)(C#Cc1ccc(F)c(-c2c[nH]c3cnc(N)nc23)c1)c1nccs1`, 2230 nM.
On the same count and under the same terms, for `COc1ccc(C#CC(C)(O)c2nccs2)cc1-c1c[nH]c2cnc(N)nc12` (centres undefined) the value was 120 nM; for `COc1cccc(C(C)(O)C#Cc2cccc(-c3c[nH]c4cnc(N)nc34)c2)n1` (centres undefined), over 10000 nM; for `Cc1ccc(-n2ccc3cnc(N)nc32)cc1C#CC(C)(O)c1nccs1` (centres undefined), 11700 nM.

Tested on in another data set: not listed separately
Description: Oral bioavailability in ICR mouse. Type of data set: ADME, organism-based. Particulars: in vivo.
`CN1CCC(O)(C#Cc2cc(-n3ccc4cnc(N)nc43)ccn2)C1=O` (centres undefined) showed a bioavailability of under 1%.
On the same count and under the same terms, the result for `CN1CCC(O)(C#Cc2ccc(F)c(-c3c[nH]c4cnc(N)nc34)c2)C1=O` (centres undefined) reads 7%.

Tested on in the next data set: not listed separately
Kind of data set: Stability of the compound in pH 1 aqueous solution. Type of data set: physicochemical. Particulars: buffer.
As to `CC(O)(C#Cc1cc(-n2ccc3cnc(N)nc32)ccn1)c1nccs1` (centres undefined), the Stability entry is “Unstable”.
With `CC(O)(C#Cc1ccc(F)c(-c2c[nH]c3cnc(N)nc23)c1)c1nccs1` (centres undefined), the Stability result is given as “Stable”.
On the same count and under the same terms, for `CN1CCC(O)(C#Cc2ccc(F)c(-c3c[nH]c4cnc(N)nc34)c2)C1=O` (centres undefined) the value was “Stable”.

In the next data set the target is Mitogen-activated protein kinase kinase kinase 14 (Mus musculus) (UniProt Q9WUL6). Description: Inhibition of NIK in NIK/p100 adenoviruses infected C57BL/6 mouse primary hepatocytes assessed as suppression of NIK-mediated proteolysis of p100 to p52 by measuring reduction in p52 level at 5 uM measured after 16 hrs by Western blot analysis.
Sequence of Mitogen-activated protein kinase kinase kinase 14 (Mus musculus) (Q9WUL6 whole entry): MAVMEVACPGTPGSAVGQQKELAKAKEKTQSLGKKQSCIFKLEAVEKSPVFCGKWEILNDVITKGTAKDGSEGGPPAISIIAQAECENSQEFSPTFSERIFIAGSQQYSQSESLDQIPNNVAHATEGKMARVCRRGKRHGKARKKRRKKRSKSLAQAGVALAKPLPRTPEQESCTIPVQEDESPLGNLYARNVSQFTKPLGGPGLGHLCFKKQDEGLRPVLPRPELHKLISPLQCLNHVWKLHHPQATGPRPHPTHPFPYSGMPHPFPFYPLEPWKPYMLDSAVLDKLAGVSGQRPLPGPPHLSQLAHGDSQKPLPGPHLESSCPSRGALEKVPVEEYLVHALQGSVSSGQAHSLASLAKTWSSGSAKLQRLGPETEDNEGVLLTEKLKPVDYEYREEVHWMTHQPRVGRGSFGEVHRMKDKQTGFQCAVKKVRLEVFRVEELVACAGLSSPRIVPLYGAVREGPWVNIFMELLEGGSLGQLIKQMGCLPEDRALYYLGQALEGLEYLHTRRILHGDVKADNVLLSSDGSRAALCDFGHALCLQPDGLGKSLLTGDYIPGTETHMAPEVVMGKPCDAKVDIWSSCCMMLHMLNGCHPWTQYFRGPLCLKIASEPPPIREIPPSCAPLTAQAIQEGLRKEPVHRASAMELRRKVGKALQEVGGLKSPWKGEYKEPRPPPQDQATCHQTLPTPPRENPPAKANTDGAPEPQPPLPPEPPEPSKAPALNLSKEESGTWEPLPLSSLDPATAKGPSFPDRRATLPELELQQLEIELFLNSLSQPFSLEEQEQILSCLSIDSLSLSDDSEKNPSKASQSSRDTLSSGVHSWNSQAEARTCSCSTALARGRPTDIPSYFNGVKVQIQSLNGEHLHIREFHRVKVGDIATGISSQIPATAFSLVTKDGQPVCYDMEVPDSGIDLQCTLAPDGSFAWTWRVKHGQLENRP
Settings: not given
Regarding `C[C@@](O)(C#Cc1ccc2c(c1)N(c1nc(N)ncc1Cl)CC2)c1nccs1`, the inhibition result is “Active”.

Another data set relates to Hepatocyte. Description: Down regulation of NIK expression in NIK/p100 adenoviruses infected C57BL/6 mouse primary hepatocytes at 5 uM measured after 16 hrs by Western blot analysis. Type of data set: functional, cell-based.
Settings: not given
Regarding `C[C@@](O)(C#Cc1ccc2c(c1)N(c1nc(N)ncc1Cl)CC2)c1nccs1`, the outcome was inactive.

For another data set, the system named is Mus musculus. Kind of data set: Antiinflammatory activity in CCl4-induced C57BL/6 mouse model of liver injury assessed as reduction in immune cell infiltration in liver at 25 mg/kg, po administered 30 mins prior to CCl4 addition followed by compound redosing at 3 hrs interval for 9 hrs and measured 12 hrs […] by F4/80/DAPI staining based immunofluorescence assay. In kind it is functional, organism-based.
Settings: not given
Regarding `C[C@@](O)(C#Cc1ccc2c(c1)N(c1nc(N)ncc1Cl)CC2)c1nccs1`, the result was Active.
